For one data set, the system named is VEGFR2 (KDR/Fc). Briefly: Coprecipitation assay, VEGF with VEGFR2/Fc. In kind it is binding. The note with it: 40 ng VEGF, 200 ng receptor/Fc. As for the experimental part: 200 ng of soluble forms of VEGFR1 (Flt-1/Fc) or VEGFR2 (KDR/Fc, R&D Systems, Minneapolis, Minn.) were added for a total volume of 50 μl and incubated for 2 hrs. The receptor/Fc constructs were precipitated using Protein A-sepharose beads and the resulting precipitate was washed 4 times with binding buffer.
Reducing sample buffer was added to the pellet and supernatant of each reaction and both were analyzed by 12% SDS-PAGE and transferred to PVDF membranes. […] The soluble receptor/Fc constructs were also detected by using peroxidase-conjugated goat anti-human Fc (Kirkegaard & Perry Laboratories, Inc.)
The receptor/Fc constructs were precipitated by incubation with Protein A sepharose beads. The precipitate was washed and resuspended in reducing sample buffer and separated by 12% SDS-PAGE and transferred to PVDF.

Data set [1] is described as follows: Blood clearance of radioiodinated 2C3-GUS in mice. In kind it is in vivo, mouse. The note with it: intravenous. The text has this:
2C3-GUS was radioiodinated with ^125I to a specific activity of 5×10^6 cpm/μg.

Data set [2] concerns human NCI-H358 NSCLC tumors. The data set is described as follows: Localization of 2C3-GUS in SCID mice bearing NCI-H358 tumors. In kind it is in vivo, mouse.
Data set [3] concerns NCI-H358 NSCLC and HT29 colon adenocarcinoma xenografts. The data set is described as follows: In vivo localization to human tumor xenografts in mice. Further details: species or system mouse; key to Immunohistochemical Reactivity Heart / Immunohistochemical Reactivity Lung / Immunohistochemical Reactivity Liver / Immunohistochemical Reactivity Kidney / Immunohistochemical Reactivity Intestine / Immunohistochemical Reactivity Spleen / Immunohistochemical Reactivity Tumor: −, negative; +/−, very weak; 1+, weak; 2+, moderate; 3+, strong; 4+, very strong. Background: Xenograft models place foreign cells or tissue in a host animal.
Method: Tumors were grown subcutaneously in immunocompromised mice (NCI-H358 NSCLC in nu/nu mice and HT29 colon adenocarcinoma in SCID mice) until the tumor volume was approximately 1 cm^3. 100 μg of unlabeled antibody for studies using SCID mice, or 100 μg of biotinylated antibody for studies using nude mice, was injected intravenously via a tail vein. Twenty four hours later, the mice were anesthetized, perfused with PBS, and tumor and organs including heart, lungs, liver, kidneys, intestines and spleen were collected and snap frozen in liquid nitrogen.
The tumor and organs from each mouse were sectioned on a cryostat and stained for antibody immunohistochemically as above, with the exception that sections from the nude mice were developed using peroxidase labeled streptavidin-biotin complex (Dako, Carpinteria, Calif.) and the sections from the SCID mice were developed using two peroxidase-conjugated secondary antibodies, a goat anti-mouse IgG+IgM followed by a rabbit anti-goat IgG.
100 μg of GV39M and 3E7 or isotype-matched control IgG were injected into SCID mice bearing HT29 human colonic adenocarcinomas. Twenty-four hours later, the mice were sacrificed, exsanguinated and the tumors and tissues were removed.

Another data set concerns NCI-H358 NSCLC tumors. Briefly: In vivo tumor therapy of established NCI-H358 xenografts. The arrangement: species or system mouse. As for the experimental part: (§1) Male nu/nu mice bearing subcutaneous NCI-H358 tumors or HT1080 fibrosarcoma 200-400 mm^3 in size were injected i.p. with test or control antibodies. The NCI-H358 bearing mice were treated with 100 μg of antibodies per injection three times a week during the first week and twice a week during the second and third week. The mice were then switched to 50 μg per injection every five days. The HT1080 bearing mice were treated with 100 μg of the indicated antibody or saline every other day throughout the duration of the study. In both studies, mice were sacrificed when their tumors reached 2500 mm^3 in size or earlier if tumors began to ulcerate.
Doses were 50-100 μg every 3-5 days. […] In addition to measuring mean tumor volume (FIG. 4), photographs of the mice from each treatment group were also taken to show the differences in tumor size and appearance at the end of the study.

The test system of another data set is A673 rhabdomyosarcoma. Briefly: In vivo tumor growth inhibition, newly implanted A673. The arrangement: species or system mouse. As to conditions: 100 μg i.p. 2 times per wk from day 1, nu/nu mice; controls approximately 1000 mm^3. As for the experimental part:
(§2) Nu/nu mice were injected subcutaneously with either 1×10^7 NCI-H358 NSCLC cells or 5×10^6 A673 rhabdomyosarcoma cells on day 0. […] The tumors were then measured twice per wk for a period of approximately six wk for the NCI-H358 bearing mice and four wk for the A673 bearing mice. Tumor volume was calculated according to the formula: volume=L×W×H, where L=length, W=width, H=height.

The test system of the next data set is VEGFR2 (KDR/Flk-1). Briefly: ELISA of VEGF binding to VEGFR2-coated wells. The arrangement: species or system mouse. Background: In an ELISA, binding on a coated surface is turned into a signal by an enzyme label.
The test system of another data set is NCI-H358 NSCLC. Briefly: In vivo tumor growth inhibition, newly implanted NCI-H358. Further details: species or system mouse. How it is done: as §2
Data set [4] concerns A673 rhabdomyosarcoma and LS174T colon adenocarcinoma tumors. The data set is described as follows: Treatment of mice with established A673 and LS174T tumors. In kind it is in vivo, mouse.
The subject of a further data set is Human tumors (various). Briefly: Immunohistochemistry on frozen sections of human tumors. In kind it is binding. Further details: key: −, negative; +/−, very weak; 1+, weak; 2+, moderate; 3+, strong; 4+, very strong. The note with it: acetone fixed frozen sections; 2C3 and 12D7 at 20 μg/ml, others 5-10 μg/ml. As for the experimental part:
(§3) Tumors were snap frozen in liquid nitrogen and stored at −70° C. Frozen samples of tumor specimens from patients were obtained from the National Cancer Institute Cooperative Human Tissue Network (Southern Division, Birmingham, Ala.). Immununohistochemistry was performed as described by Burrows et al. (1995).
(§4) Tumors examined through immunohistochemistry were human tumors of various types from cancer patients, transplantable human tumor xenografts of various types grown in mice, guinea pig Line 10 tumor grown in guinea pig, and mouse 3LL tumor grown in mice (see legend to Table 3 for details).

Another data set concerns VEGFR1 (FLT-1). The data set is described as follows: ELISA of VEGF binding to VEGFR1-coated wells.
Data set [5] has as its target T1, guinea pig VEGF in line 10 guinea pig tumor sections (Cavia porcellus, UniProt P26617).
T1 construct: from tissue; host or cells: frozen sections of line 10 hepatocellular carcinoma grown in strain 2 guinea pigs
T1 sequence (P26617 1-164): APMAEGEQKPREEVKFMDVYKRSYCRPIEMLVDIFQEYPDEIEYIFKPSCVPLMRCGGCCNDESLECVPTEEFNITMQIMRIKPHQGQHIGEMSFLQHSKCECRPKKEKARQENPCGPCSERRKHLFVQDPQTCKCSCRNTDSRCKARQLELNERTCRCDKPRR
The data set is described as follows: Immunohistochemistry on guinea pig line 10 tumor sections. In kind it is binding. Further details: key: −, negative; +/−, very weak; 1+, weak; 2+, moderate; 3+, strong; 4+, very strong. The note with it: acetone fixed frozen sections; 2C3 and 12D7 at 20 μg/ml, others 5-10 μg/ml. As for the experimental part: (§5) Guinea pig line 10 hepatocellular carcinoma tumor cells (obtained from Dr. Ronald Neuman, NIH, Bethesda, Md.) were grown in strain 2 guinea pigs (NCI, Bethesda, Md.). The human tumors NCI-H358 non-small cell lung carcinoma (NSCLC), NCI-H460 NSCLC (both obtained from Dr. Adi Gazdar, UT Southwestern, Dallas, Tex.), HT29 colon adenocarcinoma (American Type Culture Collection), and L540CY Hodgkin's lymphoma (obtained from Professor V. Diehl, Cologne, Germany) were grown as xenografts in CB17 SCID mice (Charles River, Wilmington, Mass.).
as §3

The test system of data set [6] is mouse VEGF in mouse 3LL Lewis Lung carcinoma tumor sections. The data set is described as follows: Immunohistochemistry on mouse 3LL tumor sections. In kind it is binding. Further details: key: −, negative; +/−, very weak; 1+, weak; 2+, moderate; 3+, strong; 4+, very strong. As to conditions: acetone fixed frozen sections; 2C3 and 12D7 at 20 μg/ml, others 5-10 μg/ml. How it is done:
as §3, §4

Data set [7] has as its system Human tumor xenografts (NCI-H358 NSCLC, NCI-H460 NSCLC, HT29 colon adenocarcinoma, L540 Hodgkin's lymphoma). Briefly: Immunohistochemistry on frozen sections of human tumor xenografts. In kind it is binding, mouse. Further details: key: −, negative; +/−, very weak; 1+, weak; 2+, moderate; 3+, strong; 4+, very strong. As to conditions: acetone fixed frozen sections; 2C3 and 12D7 at 20 μg/ml, others 5-10 μg/ml. How it is done: as §5, §3
The immunohistochemical reactivity of 3E7, GV39M, and 11B5 on NCI-H358 human NSCLC xenografts was determined and compared with control antibodies (an IgG of irrelevant specificity; A-20, a rabbit anti-VEGF antibody; and MECA 32, a rat anti-mouse endothelial cell antibody). 8 μm frozen sections of NCI-H358 human NSCLC grown in SCID mice were stained using an indirect immunoperoxidase technique and were counterstained with hematoxylin.

A further data set relates to HT1080 fibrosarcoma. The data set is described as follows: In vivo tumor therapy of established HT1080 xenografts. The arrangement: species or system mouse. The note with it: 100 μg every two days. As for the experimental part:
as §1

A further data set deals with KDR on ABAE cells. Briefly: 125I-VEGF binding studies on KDR expressing endothelial cells. In kind it is cell-based, bovine.
Where [8] appears, read: tumor-bearing mice, antibody intravenously 24 hours prior to sacrifice.

Sequence of mouse VEGF in mouse 3LL Lewis Lung carcinoma tumor sections (Q00731 205-317 limits assumed): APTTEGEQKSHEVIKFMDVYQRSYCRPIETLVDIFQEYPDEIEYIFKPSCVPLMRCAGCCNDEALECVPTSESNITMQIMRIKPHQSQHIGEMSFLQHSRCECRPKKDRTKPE

Regarding 2C3 F(ab′)2: F(ab′)2 of 2C3, the “blocking of binding of VEGF to VEGFR2/Fc in solution” value in the data set on VEGFR2 (KDR/Fc) is given as “blocked”.

For 2C3-GUS [Clone 2C3-GUS], in [1], the “t½ α of clearance from the blood” value is “about 6 hours” and the “t½ β of clearance from the blood” value was “about 25 hours”. For the same substance, the “localization after i.v. injection” value in [2] (SCID mice, subcutaneous NCI-H358) is “specifically localized to tumor vasculature and surrounding tumor stroma”. The “staining of normal tissues” value in data set [2] (mouse, in vivo, sc) is given as “unstained”.

On to “2C3: anti-VEGF monoclonal antibody, IgG2a k, hybridoma ATCC PTA 1595; blocks VEGF binding to VEGFR2 but not VEGFR1 [Clone 2C3]”, for which the “Immunohistochemical Reactivity Tumor” value in data set [3] (2C3: NCI-H358 in nu/nu mice, 3E7, GV39M: HT29 in SCID mice, 24 hours after i.v.) was 3+. The “localization in the HT29 human tumor model” value in data set [3] (after i.v. injection) is given as “localized strongly to the connective tissue”. Also, in [3] (setting [8]), the “Immunohistochemical Reactivity Heart” value is recorded as “−”, the “Immunohistochemical Reactivity Intestine” value is “−”, the “Immunohistochemical Reactivity Kidney” value is recorded as “−” and the “Immunohistochemical Reactivity Liver” value is listed as “−”. Also, in data set [3] (setting [8]), the “Immunohistochemical Reactivity Lung” value is recorded as “−” and the “Immunohistochemical Reactivity Spleen” value is on record as “−”. For the same substance, in the data set with NCI-H358 NSCLC tumors (established NCI-H358, 100 μg, prolonged treatment), the “mean tumor volume after approximately 14 wk of treatment” value was found to be 84 mm^3. In addition, the “mean tumor volume at the end of the study, % of the initial mean tumor volume” value with NCI-H358 NSCLC tumors (established NCI-H358, 50-100 μg i.p. every 3-5 days, approximately 10 weeks) came out at 30%. The “decrease in mean tumor volume” value with NCI-H358 NSCLC tumors (established NCI-H358, approximately 14 wk) is recorded as “approximately 80%”. For the same substance, the mean tumor weight in the data set on NCI-H358 NSCLC tumors (established NCI-H358, end of the study (day 116)) was found to be 0.054 g. Moreover, the “final tumor volume, A673 rhabdomyosarcoma” value in the data set on A673 rhabdomyosarcoma was “approximately 150 mm^3”. The “Blocks VEGF from binding to VEGFR2” value with VEGFR2 (KDR/Flk-1) was “Yes”. In addition, in the data set with VEGFR2 (KDR/Flk-1) (100-1000 fold excess), the “effect on VEGF binding to VEGFR2 in ELISA” value was “blocked”. The “amount VEGF that bound to VEGFR2-coated ELISA wells maintained at” value in the data set on VEGFR2 (KDR/Flk-1) (100 fold molar excess over VEGF) is “about 92%”. Moreover, in the data set with VEGFR2 (KDR/Flk-1) (1000-fold molar excess over VEGF (1 nM)), the “amount VEGF that bound to VEGFR2-coated wells, % of amount bound in absence of antibody” value is approximately 19%. For the same substance, the “final tumor volume, NCI-H358 NSCLC” value with NCI-H358 NSCLC (100 μg i.p. 2 times per wk from day 1, nu/nu mice, controls approximately 1000 mm^3) is “approximately 150 mm^3”. In the data set with NCI-H358 NSCLC (10 or 1 μg twice per wk, NCI-H358 and A673), the “prevention of tumor growth at lower doses” value is recorded as “less effective”. Moreover, the “growth of established A673 rhabdomyosarcoma and LS174T colon adenocarcinoma tumors” value in data set [4] is on record as “significantly slowed”. Moreover, in the data set with Human tumors (various), the “Endothelial Cell Staining Hu Tumor (various)” value is on record as “−”. For the same substance, the “Blocks VEGF from binding to VEGFR1” value with VEGFR1 (FLT-1) is recorded as “No”. In addition, in data set [5], the “Endothelial Cell Staining Guinea Pig Tumor (Line 10)” value is “−”. Also, the “Endothelial Cell Staining Mouse Tumor (3LL)” value in data set [6] is reported as “−”. Moreover, in data set [7], the “Endothelial Cell Staining Xenograft (various)” value was “−”. Besides, the “growth of HT1080 tumors” value in the data set with HT1080 fibrosarcoma is “arrested the growth”. In addition, the “blocking of 125I-VEGF binding to KDR” value in the data set on KDR on ABAE cells is “blocks VEGF from binding to KDR in a concentration dependent manner”.

Values taken from patent US6703020B1 (Board of Regents, The University of Texas System, priority 1999, dated 2004).
